Data on 2 molecules can be found in patent publication US5618809A, “Indolocarbazoles from saccharothrix aerocolonigenes copiosa subsp. nov SCC 1951 ATCC 53856” (Schering Corporation, priority 1995, dated 1997).

For experiment [1], the system named is PKC (from rats' brains). The note with it: cited from earlier work.
The subject of experiment [2] is PKC. The experiment is described as follows: PKC inhibition (partially purified PKC, Ca2+, phosphatidylserine and 1-oleoyl-2-acetylglycerol, histone III-S substrate). Format: biochemical, rat. The source says:
(§1) The PKC was partially purified from rat brain and assayed in the presence of its activators: Ca^2+, phosphatidylserine and 1-oleoyl-2-acetylglycerol. Histone III-S was used as phosphate acceptor. The MLCK was native enzyme from chicken gizzard fully activated by calmodulin. Kemptamide was used as phosphate acceptor.

Experiment [3] has as its target T1, MLCK (Gallus gallus, UniProt P11799).
T1 construct: Kemptamide as substrate
Kind of experiment: MLCK inhibition (native enzyme from chicken gizzard, calmodulin activated, Kemptamide substrate). Format: biochemical.
Source text: as §1

Experiment [4] concerns SHR and DOC-rats. The note with it: cited from earlier work.

Regarding `CC12OC(CC1(O)C(=O)O)n1c3ccccc3c3c4c(c5c6ccccc6n2c5c31)CNC4=O` (centres unmarked) [Example K252b], the “PKC inhibitory potency (in words)” value in experiment [1] was “inhibitory to PKC (from rats' brains) with good potency, in the nanomolar range”.

As for `COC(=O)[C@@]1(O)C[C@H]2O[C@]1(C)n1c3ccccc3c3c4c(c5c6ccccc6n2c5c31)C(=O)NC4` [Example K-252a], the “potency at PKC (in words)” value in experiment [2] is given as “nanomolar potencies”. Besides, the “potency at MLCK (in words)” value in experiment [3] is reported as “nanomolar potencies”. Moreover, the “lowering of blood pressure (in words)” value in experiment [4] is “lowers blood pressure in SHR and DOC-rats”. The “PKC inhibitory potency (in words)” value in experiment [1] is listed as “inhibitory to PKC (from rats' brains) with good potency, in the nanomolar range”.
